Experimental data taken from US20240261294A1, “METHOD FOR TREATING IDH INHIBITOR-RESISTANT SUBJECTS” (Eli Lilly and Company, priority 2021, published 2024).
Changes are numbered by the printed parent chain. Like-named read-outs stand apart in the source and are kept apart here.

Legend:
[1] = target: T1, IDH2 R140Q_G260A cis (Homo sapiens, UniProt P48735, G260A/R140Q); assay: Inhibition of 2-HG production in IDH2 mutant U-87 MG cells; assay type: cell-based; conditions: 16 hours incubation, 50K cells/well, 100 μl media/well, read-out: Relative IC50 (nM) Mean, inhibition of 2-HG production
T1 construct: expressed in transfected cells; host or cells: U-87 MG
T1 sequence (P48735 40-452 R140Q/G260A): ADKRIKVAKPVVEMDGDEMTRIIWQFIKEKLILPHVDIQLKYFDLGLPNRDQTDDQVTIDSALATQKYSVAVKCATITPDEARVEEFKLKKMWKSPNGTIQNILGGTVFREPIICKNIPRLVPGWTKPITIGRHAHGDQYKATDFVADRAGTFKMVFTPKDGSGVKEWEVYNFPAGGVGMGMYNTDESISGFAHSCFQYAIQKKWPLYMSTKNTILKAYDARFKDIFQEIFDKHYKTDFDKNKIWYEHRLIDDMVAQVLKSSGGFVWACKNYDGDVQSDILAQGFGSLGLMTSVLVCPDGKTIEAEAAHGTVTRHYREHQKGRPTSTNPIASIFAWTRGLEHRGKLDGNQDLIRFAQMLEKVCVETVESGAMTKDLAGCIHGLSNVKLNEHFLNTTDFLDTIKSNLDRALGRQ

[2] = target: T2, IDH2 R140Q + 1319M trans (Homo sapiens, UniProt P48735, I319M/R140Q); assay: as above; assay type: cell-based; conditions: 72 hours incubation, 12.5K cells/well
T2 sequence (P48735 40-452 R140Q): T1 sequence (P48735 40-452 R140Q/G260A) with A221G
T2 sequence (P48735 40-452 I319M): T1 sequence (P48735 40-452 R140Q/G260A) with Q101R, A221G, I280M

IC50 [1]: 7 nM
IC50 ([2]; IDH2 R140Q + 1319M trans, 150 μl media/well, read-out: IC50, inhibition of 2-HG production): 12.7 nM
IC50 ([2]; IDH2 R140Q_I319M trans, read-out: Relative IC50 (nM) Mean, inhibition of 2-HG production): 18 nM
SMILES: C=CC(=O)N1CCN([C@@H](CC2CC2)c2ccc([C@H](C)Nc3ncc4c(n3)N(CC)C(=O)OC4)cc2)CC1 [Compound A, 7-[[(1S)-1-[4-[(1S)-2-cyclopropyl-1-(4-prop-2-enoylpiperazin-1-yl)ethyl]phenyl]ethyl]amino]-1-ethyl-4H-pyrimido[4,5-d][1,3]oxazin-2-one]
